Tested on: whole blood
Experiment: Recalcified clotting time of citrated whole blood, aprotinin and lipidated tissue factor added at assay initiation
Assay type: biochemical
Excerpt: In the previous examples, blood was always collected in the presence of a calcium-chelating anticoagulant (citrate) and contact pathway inhibitor (aprotinin or corn trypsin inhibitor). It would be desirable for certain applications, for example hospital emergency department use, if blood could be […] into a standard commercially available and FDA-approved sodium citrate tube, such as that supplied by Becton Dickinson, Franklin Lakes, N.J. and Greiner America, Monroe, N.C. and the contact pathway inhibitor added concomitantly during assay initiation with lipidated tissue factor and divalent calcium. In this example, blood from a single donor was collected into sterile evacuated-tubes containing 3.2% buffered sodium citrate (Greiner). In FIG. 7A, clotting was initiated with calcium in the presence or absence of 15,000 KIU/ml aprotinin (Centerchem Inc., Norwalk, Conn.). […] In contrast, blood recalcified in the absence of aprotinin clotted in 250 sec. Thus, the contact pathway of blood coagulation has been abolished. FIG. 7B depicts a dose-response to Lovenox® when citrated blood was recalcified in the presence of 15,000 U/ml aprotinin and 10 units of lipidated tissue factor.
(>1500 sec) to 180 sec. The correlation (R^2) of clotting time to Enoxaparin® dose was 0.9915. The slope was 550 and intercept 210 sec. […]

| Substance | recalcified clotting time (citrated blood, calcium and 15,000 KIU/ml aprotinin, no tissue factor, 1500 sec maximal clotting time, FIG. 7A) | recalcified clotting time (citrated blood recalcified with 15,000 U/ml aprotinin and 10 units of lipidated tissue factor) |
| --- | --- | --- |
| aprotinin | > 1500 s |  |
| lipidated tissue factor: lipidated recombinant tissue factor with synthetic phospholipids, procoagulant that initiates the extrinsic pathway |  | 180 s |

— patent US20030064414A1, “Rapid assessment of coagulation activity in whole blood” (priority 2001, published 2003)
